Test results reported in patent US20120252045A1, “METHOD OF ASSESSING ISLET FUNCTION” (priority 2009, published 2012).
Read-outs that look alike come from different tables or passages of the source.

How the values were obtained:
β-TC6 cells = details: n=4
Protocol: (§1) Porcine islet OCRs were assessed in triplicate aliquots of 1000 IEQ. Controls comprising media alone and heat-killed islets (1000 IEQ ×3 incubated for 1 hour at 60° C.) were assayed in parallel. OCRs were measured using a fiber optic sensor oxygen monitoring system (Instech Laboratories Plymouth Meeting, Pa.), which quantifies the decrease in oxygen partial pressure (pO2) over time, as described by Papas et al., “A Stirred Microchamber for Oxygen Consumption Rate Measurements with Pancreatic Islet Cells,” Biotechnol Bioeng 2007; 98: 1071-1082. OCRs were standardized to the amount of DNA in each chamber (nmol/min-mgDNA), which was determined using a Quant-iT PicoGreen dsDNA kit (Molecular Probes, Eugene, Oreg.).
Reductions in OCR were assessed by comparing the effect of the NaAz on the OCR measurements to the OCR capability of non-treated cells. BTC6 cells and Hela cells were incubated on 150 mm culture dishes for 2 days in a 37° C. incubator with a 5% CO2 environment. The cells were then removed using 5 mM EDTA/PBS and washed once with PBS. The resulting cell pellet was resuspended in 5 mL of DMEM (Sigma) supplemented with 5% FCS (Sigma) and Penicillin/Streptomycin (Invitrogen). Cells were then incubated with various concentrations (0.01, 0.1, 1.0 and 10 mg/ml) of sodium azide (Sigma) for 10 minutes prior to measuring their oxygen consumption rates.

adult porcine islets = details: vs non-NaAz treated cells
Protocol: as §1
The experiment was repeated 3 times.

[N-]=[N+]=[N-] [NaAz, sodium azide]
reduction in OCR (β-TC6 cells; β-TC6 cells incubated with 0.1 mg/ml NaAz for 10 minutes): 29.8±4.5%
reduction in OCR (β-TC6 cells; β-TC6 cells incubated with 1 mg/ml NaAz for 10 minutes): 71.2±6.6%
reduction in OCR (β-TC6 cells; β-TC6 cells incubated with 10 mg/ml NaAz for 10 minutes): 85.9±2.3%
reduction in OCR (adult porcine islets; islets incubated with 0.1 mg/ml NaAz for 10 minutes): 37.6%
reduction in OCR (adult porcine islets; islets incubated with 1 mg/ml NaAz for 10 minutes): 59.7%
reduction in OCR (adult porcine islets; islets incubated with 10 mg/ml NaAz for 10 minutes): 84.2%
